Measurements published in patent EP0043274A2, “Antithrombotic treatment” (priority 1980, dated 1982).
Several values for one entry are separate records, joined by “and”; a condition that tells them apart may be missing. Equal entries are not always repeated. Structures can show the parent of a compound that is named as a salt. Where two headings read alike, the source gives them in different places.

Experiments:
human plasma [1] = type: biochemical
human plasma [2] = type: biochemical; remark: listed apart in the source
[3] = amine bisulfites, control plasma 37.5 / 38.2
[4] = amine bisulfites, control plasma 37.8 / 39.2
[5] = amine bisulfites, control plasma 12.8 / 13.1
[6] = amine bisulfites, control plasma 13.1 / 13.0
[7] = amine hydrochlorides, control plasma 31.2
[8] = amine hydrochlorides, control plasma 31.3
[9] = amine hydrochlorides, control plasma 12.5
[10] = amine hydrochlorides, control plasma 13.0
[11] = 0.5 mg/ml, two different days, control 42.6 / 42.10
[12] = coded agents 0.5mg/ml, […], control 43.38
[13] = coded agents 0.5mg/ml, […], control 12.92

Nc1ccccc1 [ANILINE]
PTT REPLICATIONS 2 (human plasma [1]): 44.9 | PTT REPLICATIONS 1 (human plasma [1]; [3]): 45.4 | PTT REPLICATIONS 3 (human plasma [1]; [4]): 42.9 | PT REPLICATIONS 1 (human plasma [2]; [5]): 16.0 | PT REPLICATIONS 2 (human plasma [2]; [5]): 16.9 | PT REPLICATIONS 3 (human plasma [2]; [6]): 16.0

Cl.NC1CCCCC1 [CYCLOHEXYL AMINE HYDROCHLORIDE, reference compound]
PTT 1 (human plasma [1]): 32.5 | PTT 3 (human plasma [1]; [7]): 34.3 | PTT 2 (human plasma [1]; [8]): 32.7 | PT 2 (human plasma [2]; [9]): 13.6 | PT 1 (human plasma [2]; [10]): 13.8 | PT 3 (human plasma [2]; amine hydrochlorides, control plasma 13.5): 13.5

C1COCCN1 [MORPHOLINE]
PTT REPLICATIONS 1 (human plasma [1]): 66.8 | PTT REPLICATIONS 2 (human plasma [1]): 61.8 | PTT REPLICATIONS 3 (human plasma [1]): 51.7 | PT REPLICATIONS 1 (human plasma [2]): 19.3 | PT REPLICATIONS 2 (human plasma [2]): 21.0 | PT REPLICATIONS 3 (human plasma [2]): 17.5

O=S([O-])S(=O)(=O)[O-].[Na+].[Na+] [Sodium Metabisulfite]
PTT(seconds) Exp. 1 A (human plasma [1]): 76.9 s | PTT (human plasma [1]; [11]): 77.75 s | PT (human plasma [2]): 19.56 s | PT(seconds) Exp. 1 A (human plasma [2]): 18.5 s | PT(seconds) Exp. 2 A (human plasma [2]): 21.9 s

Cl.c1ccncc1 [PYRIDINE HYDROCHLORIDE (POWDER), PYRIDINE HYDROCHLORIDE, reference compound]
PTT 1 (human plasma [1]; HYDROCHLORIDE): 30.5 | PTT 2 (human plasma [1]; HYDROCHLORIDE): 30.8 | PTT 3 (human plasma [1]; HYDROCHLORIDE): 31.1 | PT 1 (human plasma [2]; HYDROCHLORIDE): 12.6 | PT 2 (human plasma [2]; HYDROCHLORIDE): 12.5 | PT 3 (human plasma [2]; HYDROCHLORIDE): 13.8

Sodium Sulfite
PTT(seconds) Exp. 1 A (human plasma [1]): 74.8 s and 66.1 s | PTT (human plasma [1]; [11]): 66.53 s | PTT(seconds) Exp. 2 A (human plasma [1]; Active Agent 0.5/ml, test sequences A and B, control 50.5 (A), 44.5 (B)): 82.1 s and 80.7 s | PTT (human plasma [1]; [12]): 64.62 s | PT (human plasma [2]): 16.38 s | PT(seconds) Exp. 1 A (human plasma [2]): 16.8 s and 16.2 s | PT(seconds) Exp. 2 A (human plasma [2]): 17.7 s | PT (human plasma [2]; [13]): 16.14 s

C=CCN [ALLYL AMINE HYDROCHLORIDE, reference compound]
PTT 1 (human plasma [1]): 31.6 | PTT 3 (human plasma [1]; [7]): 32.4 | PTT 2 (human plasma [1]; [8]): 30.5 | PT 3 (human plasma [2]): 14.4 | PT 2 (human plasma [2]; [9]): 13.2 | PT 1 (human plasma [2]; [10]): 13.2

CC(C)(C)N [TERT-BUTYL AMINE]
PTT REPLICATIONS 2 (human plasma [1]): 68.9 | PTT REPLICATIONS 1 (human plasma [1]; [3]): 68.2 | PTT REPLICATIONS 3 (human plasma [1]; [4]): 69.0 | PT REPLICATIONS 1 (human plasma [2]; [5]): 21.7 | PT REPLICATIONS 2 (human plasma [2]; [5]): 21.8 | PT REPLICATIONS 3 (human plasma [2]; [6]): 21.8

C=CCN [ALLYL AMINE]
PTT REPLICATIONS 2 (human plasma [1]): 46.9 | PTT REPLICATIONS 1 (human plasma [1]; [3]): 47.1 | PTT REPLICATIONS 3 (human plasma [1]; [4]): 44.9 | PT REPLICATIONS 1 (human plasma [2]; [5]): 16.1 | PT REPLICATIONS 2 (human plasma [2]; [5]): 16.0 | PT REPLICATIONS 3 (human plasma [2]; [6]): 15.6

CCN(CC)CC.Cl [TRIETHYLAMINE HYDROCHLORIDE, reference compound]
PTT 1 (human plasma [1]): 32.0 | PTT 2 (human plasma [1]): 31.5 | PTT 3 (human plasma [1]): 34.5 | PT 1 (human plasma [2]): 12.8 | PT 2 (human plasma [2]): 12.7 | PT 3 (human plasma [2]): 13.5

O=S(O)CO [SO2, Sodium formaldehyde sulfoxalate, reference compound]
PTT sec (human plasma [1]; [11]): 45.1 (53.8) sec | PTT (human plasma [1]; [12]): 49.22 s | PT (human plasma [2]): 13.8 s | PT (human plasma [2]; [13]): 14.94 s

cyclohexane [reference compound]
PTT (effect in words) (human plasma [1]; in vitro, 0.5 mg/ml): minimal effect | PT (effect in words) (human plasma [2]; in vitro, 0.5 mg/ml): minimal effect

Na-phosphite [reference compound]
PT (human plasma [2]; 0.5 mg/ml, two different days, control 13.40): 12.9 s
